The IC50 is the concentration that gives 50% inhibition.

One data set concerns parasite. In words: In vitro parasite reduction ratio (PRR) assay. It counts as cell-based. The note with it: after 48 hours of exposure. As to the method: When tested in an in vitro parasite reduction ratio (PRR) assay (Le Manach, et al., 2013, Malar J., […], 424-430), Example 13 produced a >4-log kill after 48 hours of exposure, an effect similar to chloroquine in the same assay.

Data set [1] can be described thus: Conversion of Example 13 to the active metabolite in liver microsomes, species comparison. The format is in vitro ADME, mouse, rat, human. The settings on record: rank order of species. As to the method: Metabolites of Example 13 were identified both in vitro and in vivo using the following models: • In vitro: The compound of Example 13 was incubated with human (HLM) or rat (RLM) liver microsomes (1 mg/ml protein concentration in 100 mM phosphate buffer, pH 7.4) at a final concentration of 10 μM in the presence of 2 mM NADPH. The reactive intermediates were trapped by including 2 mM glutathione (GSH) or N-acetyl cysteine (NAC) in the reaction mix. • In vivo in bile duct cannulated rats: Example 13 was administered intravenously (IV) as a bolus through the jugular vein at a dose of 2 mg/kg or 4 mg/kg of body weight for control (n=3) or BDC rats (n=2), respectively. Blood samples were collected at 0.083, 0.25, 0.5, 1, 2, 4, 6, 8 and 24 h through the carotid artery, bile samples were collected at 0-2 h, 2-4 h, 4-6 h, 6-8 h and 8-24 h intervals and urine samples were collected at 0-8 h and 8-24 h intervals. The bile and urine samples were analyzed for the presence of parent and metabolites and blood samples were analyzed for the presence of parent.
These studies supported the fact that the compound of Example 2 is an active metabolite of the compound of Example 13 and is formed both in vitro and in vivo.

In a further data set the test system is Pf parasites. Description: Pf/SCID model efficacy. The settings on record: oral. It counts as in vivo, P. falciparum. As to the method: Blood Cmin (0.04 μM) observed at this dose was considered the minimum parasiticidal concentration (MPC) for the human dose prediction.
The subject of data set [2] is P. falciparum field isolates. Description: Ex vivo drug susceptibility (schizont maturation) of P. falciparum field isolates. The format is cell-based. The note with it: Plasmodium falciparum; Plasmodium field isolates, ex vivo; read-out: P. falciparum IC50. As to the method:
(§1) Further, compounds of the invention (Examples 2 and 13) were also tested against field isolates of falciparum and vivax malaria, along with three control antimalarials as described in the protocol below.
(§2) Ex Vivo Activity of Examples 2 and 13 Against Drug Resistant P. falciparum and P. Vivax Field Isolates
(§3) Standard antimalarial drugs chloroquine (CQ), amodiaquine (AQ), piperaquine (PIP), mefloquine (MFQ), and artesunate (AS) and compounds of the invention were prepared as 1 mg/mL stock solutions in H2O or dimethyl sulfoxide (DMSO) according to the manufacturers' instructions. Drug plates were pre-dosed by diluting the compounds in 50% Methanol followed by lyophilisation and stored at 4° C.
(§4) Plasmodium isolates were collected from patients attending malaria clinics in Timika (Papua, Indonesia), a region endemic for multi-drug-resistant strains of P. vivax and P. falciparum. Patients with symptomatic malaria presenting to an outpatient facility were recruited into the study if singly infected with P. falciparum or P. vivax, with a parasitaemia of between 2,000 μl-1 and 80,000 μl-1, and the majority (>80%) of parasites at ring stage of development. Venous blood (5 mL) was collected by venipuncture and after removal of host white blood cells by using cellulose (Sigma-Aldrich, Australia) filtration, packed infected red blood cells (iRBCs) were used for the ex vivo drug susceptibility assay.
(§5) Drug susceptibility of P. vivax and P. falciparum isolates was measured using a protocol modified from the WHO microtest as described previously (Marfurt et al., 2011, Antimicrob Agents Chemother., 55(9):4461). Two hundred μL of a 2% haematocrit Blood Media Mixture (BMM), consisting of RPMI 1640 medium plus 10% AB+ human serum (P. falciparum) or McCoy's 5 A medium plus 20% AB+ human serum (P. vivax), was added to each well of pre-dosed drug plates containing 11 serial concentrations (2-fold dilutions) of the antimalarials (maximum concentration shown in brackets) CQ (2,992 nM), AQ (158 nM), PIP (1,029 nM), MFQ (338 nM), AS (49 nM), and a compound of the invention (2,146 nM). A candle jar was used to mature the parasites at 37.0° C. for 35-56 hours.
(§6) Thick blood films made from each well were stained with 5% Giemsa solution for 30 minutes and examined microscopically. The number of schizonts per 200 asexual stage parasites was determined for each drug concentration and normalised to the control well. The dose-response data were analysed using nonlinear regression analysis (WinNonLn 4.1, Pharsight Corporation) and the IC50 value derived using an inhibitory sigmoid Emax model. […] Drug plate quality was assured by running schizont maturation assays (two independent experiments) with the chloroquine-resistant strain K1 and the chloroquine-sensitive strain FC27.
(§7) For microscopy slide reading QC, two randomly selected drugs per isolate were read by a second microscopist. […] If necessary, discrepant results were resolved by a third reading by an expert microscopist.

Data set [3] is described as follows: Pharmacokinetic studies (IVPK/POPK) in male Beagle dogs. It counts as in vivo. The note with it: Dog. As to the method:
All in vivo studies were approved by the institutional animal ethics committee. Pharmacokinetics following IV bolus (IVPK) or oral administration (POPK) of compounds was determined in male Wistar rats or male Beagle dogs. For IVPK in rats, Example 7 and Example 10 were administered as solutions in 20% DMA, 80% phosphate-buffered saline and Example 13 was administered as a solution in 10% v/v NMP, 20% v/v DMA in saline. For POPK, Example 7 and Example 10 were administered as suspensions in 20% DMA, 80% phosphate buffered saline and Example 13 was administered as a suspension in 0.5% HPMC and 0.1% Tween 80 through an oral gavage. Example 13 was administered to dogs as a solution in 10% Ethanol, 30% PEG 400, 60% saline for IVPK and as a suspension in 0.5% HPMC, and 0.1% Tween 80 for POPK. Doses used for rat and dog PK were 0.5 mg/kg for Examples 7 and 10 or 2 mg/kg for Example 13 (IVPK). Doses of 5 mg/kg for Examples 7 and 10 were used during POPK. Doses of 10 mg/kg were used for Example 13 during POPK studies. Blood samples were collected at 8 to 13 time points (0, 0.0833, 0.25, 0.283, 0.333, 0.417, 0.75, 1.25, 3.25, 6.25, 12.25, 24.25 h for dog IVPK; 0, 0.25, 0.5, 1, 1.5, 2, 3, 4, 8, 12, 24, 32, 48 h for dog POPK; 0.083, 0.25, 0.5, 1, 2, 4, 7, 24 h for rat IVPK; 0.25, 1, 3, 6, 12, 24, 36, 48 h for rat POPK) after dosing. Blood (rat) or plasma (dog) samples were analysed by LC-MS/MS. PK parameters were estimated by non-compartmental analysis in Phoenix®.

A further data set relates to P. vivax field isolates. In words: Ex vivo drug susceptibility (schizont maturation) of P. vivax field isolates. It counts as cell-based. The settings on record: Plasmodium vivax; Plasmodium field isolates, ex vivo; read-out: P. vivax IC50. The procedure:
as §1, §2, §3, §4, §5, §6, §7

Regarding `Cc1nc(Nc2ncc(N3CCN(C)[C@H](C)C3)c(Nc3cc(C)n(C)n3)n2)cc(C2CC2)c1F` [Example 13, (R)—N2-(4-cyclopropyl-5-fluoro-6-methylpyridin-2-yl)-N4-(1,5-dimethyl-1H-pyrazol-3-yl)-5-(3,4-dimethylpiperazin-1-yl)pyrimidine-2,4-diamine], the “log kill in parasite reduction ratio (PRR) assay” value with parasite was > 4 log. Also, the “Percent conversion to the active metabolite (Example 2)” value in data set [1] was “highest in mouse, followed by rat and then human liver microsomes”. In addition, in the data set on Pf parasites, the “Dose at which maximum kill rate was observed” value was 40 mg/kg. The IC50 in data set [2] amounted to 74.6 nM; in the data set with P. vivax field isolates it was 85.6 nM. In addition, in data set [3] (oral 10 mg/kg), the “Oral ‘F’” value is recorded as 82%. In addition, the “½ life (PO PK)” value in data set [3] (oral 10 mg/kg) was 9 h. Moreover, the clearance in data set [3] (male, Beagle, blood, IV bolus 2 mg/kg, read-out: CL blood) stood at 19 mL/min/kg. In addition, the Vd in data set [3] (male, Beagle, blood, IV bolus 2 mg/kg, read-out: Vss blood) was found to be 16 L/kg.

Values taken from patent publication US9957253B2, “Triaminopyrimidine compounds useful for preventing or treating malaria” (MMV MEDICINES FOR MALARIA VENTURE, priority 2014, dated 2018).
